The subject of experiment [1] is Staphylococcus aureus 209p. The experiment can be described thus: MIC, plate method, standard strains. Type of experiment: cell-based. To be noted: unit assumed. On the procedure: (§1) The minimum inhibitory concentration (MIC) was determined by the plate method disclosed in "Chemotherapy" (Japan), Vol. 16, (1968), pages 98-99. The culture medium used was a Heart infusion agar (pH 7.4). The number of the cells per plate used in the inoculum was 10^4 (10^6 cells/ml).

For experiment [2], the system named is Proteus vulgaris 3027. Description: MIC, plate method, standard strains. Type of experiment: cell-based. To be noted: unit assumed. On the procedure: as §1
In experiment [3] the test system is Klebsiella pneumoniae. The experiment can be described thus: MIC, plate method, standard strains. Particulars: unit assumed. Type of experiment: cell-based. As to the method: as §1
The test system of experiment [4] is Pseudomonas aeruginosa I.F.O. The experiment can be described thus: MIC, plate method, standard strains. Type of experiment: cell-based. To be noted: unit assumed; for MIC Pseudomonas aeruginosa I.F.O.: Table 4, standard strain; for MIC Pseudomonas aeruginosa I.F.C: Table 3, standard strain. As to the method: as §1
In experiment [5] the test system is Escherichia coli NIHJ. Description: MIC, plate method, standard strains. Type of experiment: cell-based. To be noted: unit assumed; for MIC Escherichia coli NIHJ: Table 4, standard strain; for MIC Esche--richin coil NIHJ: Table 3, standard strain. As to the method:
as §1

For experiment [6], the system named is Staphylococcus aureus. The experiment can be described thus: MIC against clinical isolates. Type of experiment: cell-based. Particulars: Table 5-1, clinical isolate; unit assumed.
Experiment [7] concerns Escherichia coli. The experiment can be described thus: MIC against clinical isolates. Type of experiment: cell-based. To be noted: Table 5-2, clinical isolate; unit assumed.
In experiment [8] the test system is Shigella sonnei. Description: MIC against clinical isolates. Type of experiment: cell-based. To be noted: Table 5-5, clinical isolate; unit assumed. As to the method:
as §1
(§2) MIC was determined in the same manner as in the preceding paragraph (1).

The subject of experiment [9] is Shigella flexneri. The experiment can be described thus: MIC against clinical isolates. Type of experiment: cell-based. Particulars: Table 5-5, clinical isolate; unit assumed. On the procedure:
as §1, §2

Experiment [10] concerns β-lactamase, Pseudomonas aeruginosa GN 238. The experiment can be described thus: Resistant activity against β-lactamase, iodometric assay. Type of experiment: biochemical. To be noted: β-lactamase from Pseudomonas aeruginosa GN 238; Potassium Penicillin G = 100. On the procedure: (3) Resistant activity against β-lactamase, Pseudomonas aerugionsa GN 238:
The resistant activity of each compound against β-lactamase was measured in the manner described below.
β-Lactamase was prepared from Pseudomonas aeruginosa GN 238. This microorganism was cultured in 100 ml of a medium containing 2 g of yeast extract, 10 g of polypeptone, 2 g of glucose, 7 g of disodium hydrogen phosphate, 2 g of potassium dihydrogen phosphate, 1.2 g of ammonium sulfate and 0.4 g of magnesium sulfate, per liter, in a 500-ml Erlenmeyer flask for 6 hrs. at 37° C. with shaking. The resulting cells were collected by centrifugation (5,000 r.p.m.×10 min.), washed three times with 0.1 M phosphate buffer (pH 7.0). Subsequently, the cells were subjected to sonication (20 KHz, 20 min.) and then centrifuged at 15,000 r.p.m. for 60 min. By using the supernatant of enzyme fluid, the resistance of each compound against β-lactamase was determined by the iodometric assay method. Each numeral shown in Table 7 is a relative activity value calculated by assuming as 100 the activity of the control Potassium Penicillin G.

The mark [11] stands for this setting: Table 3, standard strain, Heart infusion agar pH 7.4.

≈ marks a conversion by molar mass, not a printed value. Bounds are passed on as bounds.

Regarding `CCN1CCN(C(=O)NC(C(=O)NC2C(=O)N3C(C(=O)O)=C(COC)CSC23)c2ccccc2)C(=O)C1=O` (single isomer, unassigned) [compound 80], the MIC Staphylococcus aureus 209p in experiment [1] (Table 4, standard strain) is 0.79 µg/mL (≈ 1.45 µM). For the same molecule, the MIC Proteus vulgaris 3027 in experiment [2] (Table 4, standard strain) turned out to be 6.25 µg/mL (≈ 11.5 µM). This molecule gave an MIC Klebsiella pneumoniae in [3] (Table 4, standard strain) of 3.13 µg/mL (≈ 5.74 µM). In experiment [4], this molecule showed an MIC Pseudomonas aeruginosa I.F.O. of 50 µg/mL (≈ 91.6 µM). The MIC Escherichia coli NIHJ in experiment [5] was under 0.1 µg/mL.
Take `CC1(C)SC2C(NC(=O)C(NC(=O)N3CCN(CCCl)C(=O)C3=O)c3ccccc3)C(=O)N2C1C(=O)O` (single isomer, unassigned) [Compound 44]: the MIC Staphylococcus aureus 209p in experiment [1] (setting [11]) was under 1.57 µg/mL. Further, the MIC Proteus vulgaris 3027 in experiment [2] (Table 3, standard strain) was under 1.57 µg/mL. Also, the MIC Klebsiella pneumoniae in experiment [3] (Table 3, standard strain) is under 1.57 µg/mL. In experiment [4], this molecule displayed an MIC Pseudomonas aeruginosa I.F.C of 6.25 µg/mL (≈ 11.3 µM). In [5], this molecule displayed an MIC Esche--richin coil NIHJ of under 1.57 µg/mL.
In experiment [6], `CC1(C)S[C@@H]2[C@H](NC(=O)C(c3ccccc3)S(=O)(=O)O)C(=O)N2[C@H]1C(=O)O` (some centres unmarked) [Sodium Sulbenicillin, reference compound] gave an MIC Staphylococcus aureus F-1 of 6.25 µg/mL, an MIC Staphylococcus aureus F-3 of 6.25 µg/mL and an MIC Staphylococcus aureus F-4 of 6.25 µg/mL. In experiment [7], this molecule showed an MIC Escherichia coli GN 3435 of 6.25 µg/mL, an MIC Escherichia coli GN 3452 of 12.5 µg/mL, an MIC Escherichia coli GN 3481 of 12.5 µg/mL and an MIC Escherichia coli K-1 of 6.25 µg/mL. In experiment [7], this molecule displayed an MIC Escherichia coli K-2 of 12.5 µg/mL and an MIC Escherichia coli K-4 of 6.25 µg/mL. Moreover, in experiment [8], the MIC Shigella sonnei JS 11232 is over 200 µg/mL and the MIC Shigella sonnei JS 11755 was over 200 µg/mL. Besides, in experiment [9], the MIC Shigella flexneri JS 11215 was over 200 µg/mL and the MIC Shigella flexneri JS 11839 worked out at 12.5 µg/mL. The “Relative activity (%), resistant activity against β-lactamase” value in [10] is recorded as 50%.
Consider `CC1(C)S[C@@H]2[C@H](NC(=O)[C@H](NC(=O)N3CCN(C(=O)Nc4ccccc4)C(=O)C3)c3ccccc3)C(=O)N2[C@H]1C(=O)O` [Compound 33], for which, in [1] (setting [11]), the MIC Staphylococcus aureus 209p was under 1.57 µg/mL. In [4], this molecule had an MIC Pseudomonas aeruginosa I.F.C of 50 µg/mL (≈ 84.1 µM). The same molecule came in with an MIC Esche--richin coil NIHJ in [5] of under 1.57 µg/mL.
In experiment [1] (Table 4, standard strain), `O=C(Cc1cccs1)N[C@@H]1C(=O)N2C(C(=O)[O-])=C(C[n+]3ccccc3)CS[C@H]12` [drawing 250, reference compound] displayed an MIC Staphylococcus aureus 209p of under 1.57 µg/mL. In experiment [2] (Table 4, standard strain), the MIC Proteus vulgaris 3027 came to 200 µg/mL (≈ 481 µM). The molecule further yielded an MIC Klebsiella pneumoniae in experiment [3] (Table 4, standard strain) of 3.13 µg/mL (≈ 7.53 µM). The MIC Pseudomonas aeruginosa I.F.O. in [4] came out at 200 µg/mL (≈ 481 µM). The molecule further displayed an MIC Escherichia coli NIHJ in experiment [5] of over 3.13 µg/mL.
In the case of `CCN1CCN(C(=O)NC(C(=O)NC2C(=O)N3C(C(=O)O)=C(CSc4cnn[nH]4)CSC23)c2ccccc2)C(=O)C1=O` (single isomer, unassigned) [compound 75], the MIC Staphylococcus aureus 209p in experiment [1] (Table 4, standard strain) worked out at 1.57 µg/mL (≈ 2.55 µM). Besides, in experiment [2] (Table 4, standard strain), the MIC Proteus vulgaris 3027 came to 12.5 µg/mL (≈ 20.3 µM). In addition, in [3] (Table 4, standard strain), the MIC Klebsiella pneumoniae turned out to be 1.57 µg/mL (≈ 2.55 µM). Moreover, the MIC Pseudomonas aeruginosa I.F.O. in experiment [4] was 50 µg/mL (≈ 81.3 µM). In experiment [5], this molecule returned an MIC Escherichia coli NIHJ of under 0.4 µg/mL.
In experiment [1] (Table 4, standard strain), `Cc1csc(SCC2=C(C(=O)O)N3C(=O)C(NC(=O)C(NC(=O)N4CCN(C)C(=O)C4=O)c4ccccc4)C3SC2)n1` (single isomer, unassigned) [compound 71] had an MIC Staphylococcus aureus 209p of under 0.79 µg/mL. Also, the MIC Proteus vulgaris 3027 in [2] (Table 4, standard strain) was under 0.79 µg/mL. This molecule also came in with an MIC Klebsiella pneumoniae in experiment [3] (Table 4, standard strain) of 1.56 µg/mL (≈ 2.47 µM). In experiment [4], the MIC Pseudomonas aeruginosa I.F.O. is 50 µg/mL (≈ 79.3 µM). For the same molecule, the MIC Escherichia coli NIHJ in experiment [5] is under 0.79 µg/mL.
As for `CC(=O)OCC1=C(C(=O)O)N2C(=O)[C@@H](NC(=O)Cc3cccs3)[C@H]2SC1` [drawing 248, reference compound], the MIC Staphylococcus aureus 209p in experiment [1] (Table 4, standard strain) was under 1.57 µg/mL. The molecule also came in with an MIC Proteus vulgaris 3027 in experiment [2] (Table 4, standard strain) of 100 µg/mL (≈ 252 µM). Besides, the MIC Klebsiella pneumoniae in experiment [3] (Table 4, standard strain) is under 1.57 µg/mL. Besides, the MIC Pseudomonas aeruginosa I.F.O. in [4] was over 200 µg/mL. The molecule also yielded an MIC Escherichia coli NIHJ in [5] of under 1.57 µg/mL.

Source of the values: US4327097A, “Novel penicillins” (Toyama Chemical Co., Ltd., priority 1974, dated 1982).
